Assay results from ChEMBL document CHEMBL4052734, “Synthesis of novel 2-pyrazoline analogues with potent anti-inflammatory effect mediated by inhibition of phospholipase A2: Crystallographic, in silico docking and QSAR analysis” (Bioorg Med Chem Lett, 2017).
Converted amounts (≈) assume the structure as drawn. The source made the active and inactive calls. The rule behind the calls is not given here.

These compounds were tested on Bacillus subtilis (assay: Antibacterial activity against Bacillus subtilis MTCC 441 after 24 hrs by serial dilution method). Details: MTCC 441, 24 h.
Format: functional

Row | SMILES | MIC90
1 | O=C(O)c1cn(C2CC2)c2cc(N3CCNCC3)c(F)cc2c1=O [CIPROFLOXACIN] | 40 µg/mL (≈ 121 µM)
2 | COc1cccc(C2=NN(c3ccccc3)C(c3cccc(Cl)c3Cl)C2)c1 (stereo unspecified) | 130 µg/mL (≈ 327 µM)
3 | Clc1cccc(C2CC(c3ccc4c(c3)OCO4)=NN2c2ccccc2)c1Cl (stereo unspecified) | 140 µg/mL (≈ 340 µM)
4 | COc1ccc(C2=NN(c3ccccc3)C(c3cccc(Cl)c3Cl)C2)cc1 (stereo unspecified) | 140 µg/mL (≈ 352 µM)
5 | Fc1ccc(C2=NN(c3ccccc3)C(c3cccc(Cl)c3Cl)C2)cc1 (stereo unspecified) | 125 µg/mL (≈ 324 µM)
6 | Clc1cccc(C2CC(c3ccccc3)=NN2c2ccccc2)c1Cl (stereo unspecified) | 125 µg/mL (≈ 340 µM)
7 | Clc1ccc(C2=NN(c3cccc(Cl)c3)C(c3cccc(Cl)c3Cl)C2)cc1 (stereo unspecified) | 100 µg/mL (≈ 229 µM)
8 | Clc1cccc(N2N=C(c3ccccc3)CC2c2cccc(Cl)c2Cl)c1 (stereo unspecified) | 120 µg/mL (≈ 299 µM)

What follows are compounds tested on Escherichia coli (assay: Antibacterial activity against Escherichia coli MTCC 1687 after 24 hrs by serial dilution method). Details: MTCC 1687, 24 h.
Format: functional

Row | SMILES | MIC90
9 | O=C(O)c1cn(C2CC2)c2cc(N3CCNCC3)c(F)cc2c1=O [CIPROFLOXACIN] | 20 µg/mL (≈ 60.4 µM)
10 | COc1cccc(C2=NN(c3ccccc3)C(c3cccc(Cl)c3Cl)C2)c1 (stereo unspecified) | 50 µg/mL (≈ 126 µM)
11 | Clc1cccc(C2CC(c3ccc4c(c3)OCO4)=NN2c2ccccc2)c1Cl (stereo unspecified) | 140 µg/mL (≈ 340 µM)
12 | COc1ccc(C2=NN(c3ccccc3)C(c3cccc(Cl)c3Cl)C2)cc1 (stereo unspecified) | 40 µg/mL (≈ 101 µM)
13 | Fc1ccc(C2=NN(c3ccccc3)C(c3cccc(Cl)c3Cl)C2)cc1 (stereo unspecified) | 25 µg/mL (≈ 64.9 µM)
14 | Clc1cccc(C2CC(c3ccccc3)=NN2c2ccccc2)c1Cl (stereo unspecified) | 75 µg/mL (≈ 204 µM)
15 | Clc1ccc(C2=NN(c3cccc(Cl)c3)C(c3cccc(Cl)c3Cl)C2)cc1 (stereo unspecified) | 15 µg/mL (≈ 34.4 µM)
16 | Clc1cccc(N2N=C(c3ccccc3)CC2c2cccc(Cl)c2Cl)c1 (stereo unspecified) | 20 µg/mL (≈ 49.8 µM)

The compounds below were run against T1, Basic phospholipase A2 VRV-PL-VIIIa (Daboia russelii, UniProt P59071) (assay: (§1) Inhibition of Vipera russelii venom sPLA2 using DMPC as substrate preincubated for 2 mins followed by substrate addition measured after 30 mins). Details: not given.
T1 sequence (P59071 whole entry): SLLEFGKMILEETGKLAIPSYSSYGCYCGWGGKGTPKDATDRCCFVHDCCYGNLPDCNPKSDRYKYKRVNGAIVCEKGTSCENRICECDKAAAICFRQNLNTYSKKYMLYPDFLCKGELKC

Row | SMILES | IC50
17 | COc1cccc(C2=NN(c3ccccc3)C(c3cccc(Cl)c3Cl)C2)c1 (stereo unspecified) | 29.8 µM
18 | Clc1cccc(C2CC(c3ccc4c(c3)OCO4)=NN2c2ccccc2)c1Cl (stereo unspecified) | 48.2 µM
19 | COc1ccc(C2=NN(c3ccccc3)C(c3cccc(Cl)c3Cl)C2)cc1 (stereo unspecified) | 11.9 µM
20 | Fc1ccc(C2=NN(c3ccccc3)C(c3cccc(Cl)c3Cl)C2)cc1 (stereo unspecified) | 11.1 µM
21 | Clc1cccc(C2CC(c3ccccc3)=NN2c2ccccc2)c1Cl (stereo unspecified) | 12 µM
22 | Clc1ccc(C2=NN(c3cccc(Cl)c3)C(c3cccc(Cl)c3Cl)C2)cc1 (stereo unspecified) | 14.6 µM
23 | Clc1cccc(N2N=C(c3ccccc3)CC2c2cccc(Cl)c2Cl)c1 (stereo unspecified) | 19.3 µM

These compounds were tested against T2, Basic phospholipase A2 VRV-PL-VIIIa (Daboia russelii) (UniProt P59071) (assay: as §1). Details: not given.
T2 sequence (whole entry): T1 sequence (P59071 whole entry)

Row | SMILES | inhibition
24 | COc1cccc(C2=NN(c3ccccc3)C(c3cccc(Cl)c3Cl)C2)c1 (stereo unspecified) | Dose-dependent effect
25 | Clc1cccc(C2CC(c3ccc4c(c3)OCO4)=NN2c2ccccc2)c1Cl (stereo unspecified) | Dose-dependent effect
26 | COc1ccc(C2=NN(c3ccccc3)C(c3cccc(Cl)c3Cl)C2)cc1 (stereo unspecified) | Dose-dependent effect
27 | Fc1ccc(C2=NN(c3ccccc3)C(c3cccc(Cl)c3Cl)C2)cc1 (stereo unspecified) | Dose-dependent effect
28 | Clc1cccc(C2CC(c3ccccc3)=NN2c2ccccc2)c1Cl (stereo unspecified) | Dose-dependent effect
29 | Clc1ccc(C2=NN(c3cccc(Cl)c3)C(c3cccc(Cl)c3Cl)C2)cc1 (stereo unspecified) | Dose-dependent effect
30 | Clc1cccc(N2N=C(c3ccccc3)CC2c2cccc(Cl)c2Cl)c1 (stereo unspecified) | Dose-dependent effect

These compounds were tested on Staphylococcus aureus (assay: Antibacterial activity against Staphylococcus aureus MTCC 737 after 24 hrs by serial dilution method). Details: MTCC 737, 24 h.
Format: functional

Row | SMILES | MIC90
31 | O=C(O)c1cn(C2CC2)c2cc(N3CCNCC3)c(F)cc2c1=O [CIPROFLOXACIN] | 20 µg/mL (≈ 60.4 µM)
32 | COc1cccc(C2=NN(c3ccccc3)C(c3cccc(Cl)c3Cl)C2)c1 (stereo unspecified) | 50 µg/mL (≈ 126 µM)
33 | Clc1cccc(C2CC(c3ccc4c(c3)OCO4)=NN2c2ccccc2)c1Cl (stereo unspecified) | 130 µg/mL (≈ 316 µM)
34 | COc1ccc(C2=NN(c3ccccc3)C(c3cccc(Cl)c3Cl)C2)cc1 (stereo unspecified) | 40 µg/mL (≈ 101 µM)
35 | Fc1ccc(C2=NN(c3ccccc3)C(c3cccc(Cl)c3Cl)C2)cc1 (stereo unspecified) | 40 µg/mL (≈ 104 µM)
36 | Clc1cccc(C2CC(c3ccccc3)=NN2c2ccccc2)c1Cl (stereo unspecified) | 50 µg/mL (≈ 136 µM)
37 | Clc1ccc(C2=NN(c3cccc(Cl)c3)C(c3cccc(Cl)c3Cl)C2)cc1 (stereo unspecified) | 10 µg/mL (≈ 22.9 µM)
38 | Clc1cccc(N2N=C(c3ccccc3)CC2c2cccc(Cl)c2Cl)c1 (stereo unspecified) | 20 µg/mL (≈ 49.8 µM)

Each compound was assayed against T2, Basic phospholipase A2 VRV-PL-VIIIa (Daboia russelii) (assay: Inhibition of Vipera russelii venom sPLA2 using DMPC as substrate at 11.930 uM preincubated for 2 mins followed by substrate addition measured after 30 mins in presence of 1 to 12 mM CaCl2). Details: not given.

Row | SMILES | inhibition
39 | COc1ccc(C2=NN(c3ccccc3)C(c3cccc(Cl)c3Cl)C2)cc1 (stereo unspecified) | Active

These compounds were tested on Candida albicans (assay: Antifungal activity against Candida albicans MTCC 227 after 72 hrs by serial dilution method). Details: MTCC 227, 72 h.
Format: functional

Row | SMILES | MIC90
40 | COc1cccc(C2=NN(c3ccccc3)C(c3cccc(Cl)c3Cl)C2)c1 (stereo unspecified) | 40 µg/mL (≈ 101 µM)
41 | Clc1cccc(C2CC(c3ccc4c(c3)OCO4)=NN2c2ccccc2)c1Cl (stereo unspecified) | 120 µg/mL (≈ 292 µM)
42 | COc1ccc(C2=NN(c3ccccc3)C(c3cccc(Cl)c3Cl)C2)cc1 (stereo unspecified) | 30 µg/mL (≈ 75.5 µM)
43 | Fc1ccc(C2=NN(c3ccccc3)C(c3cccc(Cl)c3Cl)C2)cc1 (stereo unspecified) | 50 µg/mL (≈ 130 µM)
44 | Clc1cccc(C2CC(c3ccccc3)=NN2c2ccccc2)c1Cl (stereo unspecified) | 25 µg/mL (≈ 68.1 µM)
45 | Clc1ccc(C2=NN(c3cccc(Cl)c3)C(c3cccc(Cl)c3Cl)C2)cc1 (stereo unspecified) | 15 µg/mL (≈ 34.4 µM)
46 | Clc1cccc(N2N=C(c3ccccc3)CC2c2cccc(Cl)c2Cl)c1 (stereo unspecified) | 15 µg/mL (≈ 37.3 µM)

What follows are compounds tested against T2, Basic phospholipase A2 VRV-PL-VIIIa (Daboia russelii) (assay: Inhibition of Vipera russelii venom sPLA2 using DMPC as substrate at 11.102 uM preincubated for 2 mins followed by substrate addition measured after 30 mins in presence of 1 to 12 mM CaCl2). Details: not given.

Row | SMILES | inhibition
47 | Fc1ccc(C2=NN(c3ccccc3)C(c3cccc(Cl)c3Cl)C2)cc1 (stereo unspecified) | Active

The compounds below were run on Aspergillus flavus (assay: Antifungal activity against Aspergillus flavus after 72 hrs by serial dilution method). Details: not given.
Format: functional

Row | SMILES | MIC90
48 | COc1cccc(C2=NN(c3ccccc3)C(c3cccc(Cl)c3Cl)C2)c1 (stereo unspecified) | 120 µg/mL (≈ 302 µM)
49 | Clc1cccc(C2CC(c3ccc4c(c3)OCO4)=NN2c2ccccc2)c1Cl (stereo unspecified) | 130 µg/mL (≈ 316 µM)
50 | COc1ccc(C2=NN(c3ccccc3)C(c3cccc(Cl)c3Cl)C2)cc1 (stereo unspecified) | 125 µg/mL (≈ 315 µM)
51 | Fc1ccc(C2=NN(c3ccccc3)C(c3cccc(Cl)c3Cl)C2)cc1 (stereo unspecified) | 120 µg/mL (≈ 311 µM)
52 | Clc1cccc(C2CC(c3ccccc3)=NN2c2ccccc2)c1Cl (stereo unspecified) | 110 µg/mL (≈ 299 µM)
53 | Clc1ccc(C2=NN(c3cccc(Cl)c3)C(c3cccc(Cl)c3Cl)C2)cc1 (stereo unspecified) | 110 µg/mL (≈ 252 µM)
54 | Clc1cccc(N2N=C(c3ccccc3)CC2c2cccc(Cl)c2Cl)c1 (stereo unspecified) | 125 µg/mL (≈ 311 µM)

The compounds below were run on Aspergillus niger (assay: Antifungal activity against Aspergillus niger after 72 hrs by serial dilution method). Details: not given.
Format: functional

Row | SMILES | MIC90
55 | COc1cccc(C2=NN(c3ccccc3)C(c3cccc(Cl)c3Cl)C2)c1 (stereo unspecified) | 40 µg/mL (≈ 101 µM)
56 | Clc1cccc(C2CC(c3ccc4c(c3)OCO4)=NN2c2ccccc2)c1Cl (stereo unspecified) | 130 µg/mL (≈ 316 µM)
57 | COc1ccc(C2=NN(c3ccccc3)C(c3cccc(Cl)c3Cl)C2)cc1 (stereo unspecified) | 50 µg/mL (≈ 126 µM)
58 | Fc1ccc(C2=NN(c3ccccc3)C(c3cccc(Cl)c3Cl)C2)cc1 (stereo unspecified) | 30 µg/mL (≈ 77.9 µM)
59 | Clc1cccc(C2CC(c3ccccc3)=NN2c2ccccc2)c1Cl (stereo unspecified) | 30 µg/mL (≈ 81.7 µM)
60 | Clc1ccc(C2=NN(c3cccc(Cl)c3)C(c3cccc(Cl)c3Cl)C2)cc1 (stereo unspecified) | 15 µg/mL (≈ 34.4 µM)
61 | Clc1cccc(N2N=C(c3ccccc3)CC2c2cccc(Cl)c2Cl)c1 (stereo unspecified) | 20 µg/mL (≈ 49.8 µM)
